The target in this experiment is T1, human leukocyte 5-lipoxygenase (Homo sapiens, UniProt P09917).
T1 construct: endogenous in cells; host or cells: intact leukocytes isolated from human blood
T1 sequence (P09917 1-674): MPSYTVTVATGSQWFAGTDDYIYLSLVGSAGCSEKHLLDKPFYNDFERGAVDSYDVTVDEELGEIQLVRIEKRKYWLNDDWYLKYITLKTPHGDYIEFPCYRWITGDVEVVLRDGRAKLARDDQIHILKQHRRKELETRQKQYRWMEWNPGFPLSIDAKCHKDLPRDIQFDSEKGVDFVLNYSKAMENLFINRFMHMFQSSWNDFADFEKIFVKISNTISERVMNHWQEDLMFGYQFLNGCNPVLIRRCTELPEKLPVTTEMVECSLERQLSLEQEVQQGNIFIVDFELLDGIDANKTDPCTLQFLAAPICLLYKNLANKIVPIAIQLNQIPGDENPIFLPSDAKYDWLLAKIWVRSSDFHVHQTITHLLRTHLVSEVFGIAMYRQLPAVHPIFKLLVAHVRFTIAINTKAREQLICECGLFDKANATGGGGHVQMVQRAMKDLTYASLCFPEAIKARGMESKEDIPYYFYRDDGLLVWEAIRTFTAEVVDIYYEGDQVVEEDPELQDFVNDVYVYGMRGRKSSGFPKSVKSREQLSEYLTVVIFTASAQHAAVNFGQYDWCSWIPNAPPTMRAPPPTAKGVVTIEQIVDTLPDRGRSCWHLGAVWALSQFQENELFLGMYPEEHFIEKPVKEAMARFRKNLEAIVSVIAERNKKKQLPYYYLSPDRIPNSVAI
Put plainly: 5-lipoxygenase inhibition in human leukocytes, 5-HETE formation (5LOA; methods 5LOA1 and 5LOA2). The following applies: for IC50: 5-HETE formation, human leukocytes, read-out: Concentration (M) for 50.0 % Inhibition, IC (5LOA). It counts as cell-based. The source says:
To Evaluate the Effect of Each Compounds as a 5-Lipoxygenase Inhibitor in Comparison to Standard Reference Agents in Human Leukocytes (5LOA1)
The purpose of this assay is to evaluate the activity of each compound as an inhibitor of human leukocyte 5-lipoxygenase.
Arachidonic acid and calcium ionophore A23187 are obtained from Sigma (St. Louis, MO). Silica gel plates, GF are obtained from Analtech (Newark, DE). Arachidonic acid, (1-^14 C) and 5-HETE (^3 H), 5 (S)-hydroxy-6-trans,8,11,14-cis eicosatetraenoic acid, are obtained from New England Nuclear (Boston, MA). Six percent Dextran-70 in 0.9% NaCl is obtained from Cutter Labs (Berkeley, CA).
Preparation of Leukocytes
Fresh blood from normal adult men who had not received any drugs for at least the previous five days is obtained by the Community Research Clinic (WL/PD) using venipuncture and collected into heparinized vacuotainer tubes. To every 100 ml of pooled blood is added 25 ml of dextran solution (6% dextran -70 in 0.9% sodium chloride containing 3% dextrose) and this is mixed gently in a plastic cylinder. The mixture is left to stand at room temperature for at least 90 minutes. The upper layer which is rich in leukocytes and platelets is then carefully decanted into 50 ml plastic tubes and centrifuged at about 100×g for eight minutes in an IEC centrifuge and rotor number 269 (about 600 rpm). The supernatant fluid is discarded and the pellet is resuspended in 10 ml of 0.87% ammonium chloride for exactly two minutes. This procedure is to lyse completely contaminating red blood cells. Leukocytes are then separated by centrifugation for ten minutes. The pellet is washed three times by suspension in 20 ml PBS (sodium chloride, 7.1 g; Na2 HPO4, 1.15 g; KH2 PO4, 0.2 g, and KCl, 0.2 g/L) and centrifuged as before. The final pellet is suspended in PBS containing 0.87 mM CaCl2. Viability of the cells is then checked using trypan blue exclusion method and is found to be over 90%.
5-Lipoxygenase Enzyme Assay
Leukocyte cells in suspension (0.98 ml) are incubated with or without test compounds for five minutes at 37° C. in a shaking water bath. At this time a 17 μl mixture is prepared per 1 ml of cell suspension: 100 mM arachidonic acid, 1 μl, 0.05 μCi ^14 C-arachidonic acid in 5 μl; 1 mM calcium ionophore A23187, 10 μl (1). This mixture is added and the incubation continued for five minutes. The reaction is stopped by adding four volumes of absolute ethanol and the mixture is kept in ice for 30 minutes. The floculated precipitate is separated by centrifugation at about 37,000×g for 20 minutes (Beckman Instruments rotor number 40). The alcohol extract is taken to dryness under a stream of nitrogen and the residue is dissolved in 100-200 μl absolute ethanol. At the time any turbidity is removed by centrifugation. An aliquot (25-50 μl) is applied onto 20×20 cm silica gel TLC plate and developed using the following solvent system: diethyl ether, petroleum ether (2040° C.), acetic acid (50:50:1 v/v). Zones of 1 cm apart are scraped from the TLC plate and transferred to mini-vials. Methanol (0.5 ml) is added to dissolve the radioactivity adsorbed to the silica gel and scintillation fluid (H. P., Beckman), 5 ml is then added and vials are counted in a liquid scintillation counter. A sample of ^3 H-5-HETE is applied and used for the identification of the formed 5-HETE.
Total radioactivity in the test as well as the control samples are normalized and the amount of 5-HETE present is calculated accordingly.
IC50 values are defined as the concentrations of test agents which caused a 50% inhibition of the formation of 5-HETE as compared to control and are determined by inspection of the concentration-response curves.
5-Lipoxygenase Assay Using Isolated Human Leukocytes (5LOA2)
The formation of 5-HETE in human leukocytes is considered a measure of 5-lipoxygenase activity. The protocol is described in the following. […]

“And” between values parts separate entries of the source, which are not always exact repeats. Equal values may be shown once.

On to `O=C(Nc1cccc(CCc2ccc(Cl)c(Cl)c2)c1)c1sc2ccccc2c1O` [Example 146, Benzo[b]thiophene-2-carboxamide, N-[3-[2-(3,4-dichlorophenyl)ethyl]phenyl]-3-hydroxy], for which the IC50 was found to be 3.96e-06 M.

Take `CCCCCCCCCCc1ccc(NC(=O)C2CS(=O)(=O)c3ccccc3C2=O)cc1` (centres unmarked) [Example 60, N-(4-Decylphenyl)-3,4-dihydro-4-oxo-2H-1-benzoothiopyran-3-carboxamide, 1,1-dioxide]: the “% Inhibition (5LOA)” value is, setting by setting: (Concentration 1.00 E -5 M) 25.2%; (Concentration 2.00 E -5 M) 21.7%; (Concentration 5.00 E -6 M) 7.9%.

In the case of `O=C(Nc1ccc(C=Cc2ccc(Cl)c(Cl)c2)cc1)C1=C(O)c2ccccc2S(=O)(=O)C1` [Example 74, 2H-1-Benzothiopyran-3-carboxamide, N-[4-[2-(3,4-dichlorophenyl)ethenyl]phenyl]-4-hydroxy-, 1,1-dioxide], the IC50 is 9.3e-06 M.

For `O=C(Nc1ccccc1CCCc1ccc(Cl)c(Cl)c1)C1=C(O)c2ccccc2S(=O)(=O)C1` [Example 80, 2H-1-Benzothiopyran-3-carboxamide, N-[2-[3-(3,4-dichlorophenyl)propyl]phenyl]-4-hydroxy-, 1,1-dioxide], the IC50 was 1.01e-05 M.

For `O=C(Nc1ccc(CCc2ccccc2)cc1)C1CS(=O)(=O)c2ccccc2C1=O` (centres unmarked) [Example 16, 3,4-Dihydro-4-oxo-N-[(4-(2-phenyl)ethyl]-phenyl]-2H-1-benzothiopyran-3-carboxamide, 1,1-dioxide], the IC50 was found to be 1.77e-05 M.

Consider `O=C(Nc1ccc(CCc2ccc(-c3ccccc3)cc2)cc1)C1CS(=O)(=O)c2ccccc2C1=O` (centres unmarked) [Example 46, N-[4-[2-([1,1'-biphenyl]-4-yl)ethyl]phenyl]-3,4-dihydro-4-oxo-2H-1-benzothiopyran-3-carboxamide, 1,1-dioxide], for which the IC50 came out at 1.1e-05 M.

As to `O=C(Nc1ccc(CCc2ccc(Cl)cc2)cc1)C1CS(=O)(=O)c2ccccc2C1=O` (centres unmarked) [Example 54, N-[4-[2-(4-Chlorophenyl)ethyl]phenyl]-3,4-dihydro-4-oxo-2H-1-benzothiopyran-3-carboxamide, 1,1-dioxide], the IC50 was 5.25e-06 M.

In the case of `Cc1ccc(CCc2ccc(NC(=O)C3CS(=O)(=O)c4ccccc4C3=O)cc2)cc1C` (centres unmarked) [Example 53, N-[4-[2-(3,4-Dimethylphenyl)ethyl]phenyl]-3,4-dihydro-4-oxo-2H-1-benzothiopyran-3-carboxamide, 1,1-dioxide], the IC50 was 3.8e-06 M.

Take `O=C(Nc1ccc(CCc2ccc3ccccc3c2)cc1)C1=C(O)c2ccccc2S(=O)(=O)C1` [Example 51, 4-Hydroxy-N-[4-[2-(2-naphthalenyl)ethyl]phenyl]-2H-1-benzothiopyran-3-carboxamide, 1,1-dioxide]: the IC50 stood at 2.12e-06 M.

For the molecule `O=C(Nc1ccc(Cc2ccc(Cl)c(Cl)c2)cc1)C1=C(O)c2ccccc2S(=O)(=O)C1` [Example 78, 2H-1-Benzothiopyran-3-carboxamide, N-[4-[(3,4-dichlorophenyl)methyl]phenyl]-4-hydroxy-, 1,1-dioxide], the IC50 came to 1.06e-05 M.

For the molecule `O=C(Nc1cccc(CCc2ccc(Cl)c(Cl)c2)c1)C1=C(O)c2ccccc2S(=O)(=O)C1` [Example 76, 2H-1-Benzothiopyran-3-carboxamide, N-[3-[2-(3,4-dichlorophenyl)ethyl]phenyl]-4-hydroxy-, 1,1-dioxide], the IC50 was determined as 1.1e-05 M.

For `O=C(Nc1ccc(CCCc2ccc(Cl)c(Cl)c2)cc1)C1=C(O)c2ccccc2S(=O)(=O)C1` [Example 79, 2H-1-Benzothiopyran-3-carboxamide, N-[4-[3-(3,4-dichlorphenyl)propyl]phenyl]-4-hydroxy-, 1,1-dioxide], the IC50 was 9.2e-06 M.

As for `COc1ccc(CCc2ccc(NC(=O)C3=C(O)c4ccccc4S(=O)(=O)C3)cc2)cc1OC` [Example 18, N-[4-[2-(3,4-Dimethoxyphenyl)ethyl]phenyl]-4-hydroxy-2H-1-benzothiopyran-3-carboxamide, 1,1-dioxide], the IC50 was determined as 1.35e-05 M.

Regarding `COc1ccc(CCc2ccc(NC(=O)c3sc4ccccc4c3O)cc2)cc1OC` [Example 143, Benzo[b]thiophene-2-carboxamide, N-[4-[2-(3,4-dimethoxphenyl)ethyl]phenyl]-3-hydroxy], the IC50 was 5.22e-06 M.

For `O=C(Nc1ccc(C=Cc2ccc([N+](=O)[O-])cc2)cc1)C1CS(=O)(=O)c2ccccc2C1=O` (centres unmarked) [Example 67, 2H-1-Benzothiopyran-3-carboxamide, 3,4-dihydro-N-[4-[2-(4-nitrophenyl)ethenyl]phenyl]-4-oxo-, 1,1-dixide], the IC50 came to 1.17e-05 M.

In the case of `COc1ccc(CCc2ccc(NC(=O)C3CS(=O)(=O)c4ccccc4C3=O)cc2)cc1` (centres unmarked) [Example 41], the IC50 was determined as 7e-06 M.

In the case of `CCCCOc1ccc(CCc2ccc(NC(=O)C3CS(=O)(=O)c4ccccc4C3=O)cc2)cc1` (centres unmarked) [Example 48], the IC50 is 1.59e-05 M and 1.91e-05 M.

On to `O=C(Nc1ccc(CCc2cccc3ccccc23)cc1)C1=C(O)c2ccccc2S(=O)(=O)C1` [Example 73, 2H-1-Benzothiopyran-3-carboxamide, 4-hydroxy-N-[4-[2-(1-naphthalenyl)ethyl]phenyl], 1,1-dioxide], for which the IC50 was 4.09e-06 M and 8.2e-06 M.

Consider `COc1cc(CCc2ccc(NC(=O)C(=O)c3sc4ccccc4c3O)cc2)ccc1O` [Example 142, Benzo[b]thiophene-2-acetamide, 3-hydroxy-N-[4-[2-(4-hydroxy-3-methoxyphenyl)ethyl]phenyl]-α-oxo-], for which the IC50 came to 6e-06 M.

Take `O=C(Nc1ccc(CCc2c(F)c(F)c(F)c(F)c2F)cc1)C1=C(O)c2ccccc2S(=O)(=O)C1` [Example 64, N-[4-[2-(2,3,4,5,6-Pentafluorophenyl)ethyl]phenyl]-4-hydroxy-2H-1-benzothiopyran-3-carboxamide, 1,1-dioxide]: the IC50 amounted to 1.19e-05 M.

With `COc1ccc(CCc2ccc(NC(=O)C3CS(=O)(=O)c4ccccc4C3=O)cc2)cc1O` (centres unmarked) [Example 27, 3,4-Dihydro-N-[4-[2-(3-hydroxy-4-methoxyphenyl)ethyl]phenyl]-4-oxo-2H-1-benzothiopyran-3-carboxamide, 1,1-dioxide], the IC50 was 1.8e-05 M.

The values are drawn from US4868195A, “Novel enolamides, pharmaceutical compositions and methods of use thereof for activity as modulators of the arachidonic acid cascade” (Warner-Lambert Company, priority 1988, dated 1989).
